Results reported in US8772480B2, “Inhibitors of PI3 kinase and/or mTOR” (priority 2009, dated 2014).

Columns and labels:
[1] = target: ProfilerPro Kinase Selectivity Assay Kit kinases (Homo sapiens, UniProt O00141); assay type: biochemical; conditions: SGK1; 1 μM compound concentration
Protocol: (§1) Compounds were profiled using a LabChip® EZ Reader II platform and a ProfilerPro Kinase Selectivity Assay Kit (Caliper Lifesciences Inc., Hopkinton, Mass.). Compounds were tested at a concentration of 1 M in duplicate, with mean data reported as percent of control (POC).

[2] = target: ProfilerPro Kinase Selectivity Assay Kit kinases (Homo sapiens, UniProt O75116); assay type: biochemical; conditions: ROCK2; 1 μM compound concentration
Protocol: as §1

[3] = target: ProfilerPro Kinase Selectivity Assay Kit kinases (Homo sapiens, UniProt O96017); assay type: biochemical; conditions: CHK2; 1 μM compound concentration
Protocol: as §1

[4] = target: ProfilerPro Kinase Selectivity Assay Kit kinases (Homo sapiens, UniProt P06241); assay type: biochemical; conditions: FYN; 1 μM compound concentration
Protocol: as §1

[5] = target: ProfilerPro Kinase Selectivity Assay Kit kinases (Homo sapiens, UniProt P31751); assay type: biochemical; conditions: AKT2; 1 μM compound concentration
Protocol: as §1

[6] = target: ProfilerPro Kinase Selectivity Assay Kit kinases (Homo sapiens, UniProt P35968); assay type: biochemical; conditions: KDR; 1 μM compound concentration
Protocol: as §1

[7] = target: ProfilerPro Kinase Selectivity Assay Kit kinases (Homo sapiens, UniProt P43405); assay type: biochemical; conditions: SYK; 1 μM compound concentration
Protocol: as §1

[8] = target: ProfilerPro Kinase Selectivity Assay Kit kinases (Homo sapiens, UniProt P49137); assay type: biochemical; conditions: MAPKAPK2; 1 μM compound concentration
Protocol: as §1

[9] = target: ProfilerPro Kinase Selectivity Assay Kit kinases (Homo sapiens, UniProt Q05513); assay type: biochemical; conditions: PKC zeta; 1 μM compound concentration
Protocol: as §1

[10] = target: ProfilerPro Kinase Selectivity Assay Kit kinases (Homo sapiens, UniProt Q13177); assay type: biochemical; conditions: PAK2; 1 μM compound concentration
Protocol: as §1

[11] = target: ProfilerPro Kinase Selectivity Assay Kit kinases (Homo sapiens, UniProt Q9BZL6); assay type: biochemical; conditions: PKD2; 1 μM compound concentration
Protocol: as §1

[12] = target: ProfilerPro Kinase Selectivity Assay Kit kinases (Homo sapiens, UniProt Q9P1W9); assay type: biochemical; conditions: PIM2; 1 μM compound concentration
Protocol: as §1

[13] = system: ProfilerPro Kinase Selectivity Assay Kit kinases; assay type: biochemical; conditions: 1 μM compound concentration
Protocol: as §1

[14] = target: PI3Kα (Homo sapiens (Human), UniProt P42336); conditions: read-out: PI3Kα AlphaScreen ® Ki
[15] = target: human mutant B-raf (HuBraf V600E) (Homo sapiens (Human), UniProt P15056, V600E); conditions: at 10 μM compound concentration; POC = 100 − percent inhibition
Protocol: B-Raf Homogenous Time Resolved Fluorescence (HTRF) Kinase Assay
The final concentration of the kinase reaction buffer is 50 mM Tris-HCl pH 7.5, 10 mM MgCl2, 0.5% glucose, 0.5 mM DTT, 0.01% BSA. […] The detection reaction proceeds for one hour and is read on a RubyStar (BMG Labtech, Durham, N.C.) counter. IC50s for the test compounds are generated using Excel-XLfit software. For single concentration percent of control (POC;=100−percent inhibition) assays, compounds were assayed as above at a single test concentration of 10 M test compound.

[16] = system: phosphorylation of Akt at Serine 473 in U87 MG cells; assay: cells; conditions: Homo sapiens, U-87 MG, 2 h, read-out: U87Cell IC50, pAkt (Ser 473), U87 MG cells, two hours with compound

Sequence of ProfilerPro Kinase Selectivity Assay Kit kinases (Homo sapiens, UniProt P06241) (P06241 2-537 limits assumed): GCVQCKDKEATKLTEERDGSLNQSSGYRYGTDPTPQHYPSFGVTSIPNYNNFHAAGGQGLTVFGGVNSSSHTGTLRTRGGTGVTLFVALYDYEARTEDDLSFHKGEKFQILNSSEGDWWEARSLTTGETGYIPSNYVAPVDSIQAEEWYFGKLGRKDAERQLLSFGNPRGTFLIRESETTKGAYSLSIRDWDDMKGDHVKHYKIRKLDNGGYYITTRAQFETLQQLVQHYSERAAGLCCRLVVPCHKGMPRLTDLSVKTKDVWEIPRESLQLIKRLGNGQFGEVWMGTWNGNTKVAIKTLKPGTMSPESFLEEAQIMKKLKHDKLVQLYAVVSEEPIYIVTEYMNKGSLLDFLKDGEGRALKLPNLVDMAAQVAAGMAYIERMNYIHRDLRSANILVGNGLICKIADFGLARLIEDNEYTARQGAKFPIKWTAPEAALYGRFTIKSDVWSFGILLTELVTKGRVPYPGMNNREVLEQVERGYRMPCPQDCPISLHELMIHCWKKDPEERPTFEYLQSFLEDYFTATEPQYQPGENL
Sequence of ProfilerPro Kinase Selectivity Assay Kit kinases (Homo sapiens, UniProt P35968) (P35968 20-1356 limits assumed): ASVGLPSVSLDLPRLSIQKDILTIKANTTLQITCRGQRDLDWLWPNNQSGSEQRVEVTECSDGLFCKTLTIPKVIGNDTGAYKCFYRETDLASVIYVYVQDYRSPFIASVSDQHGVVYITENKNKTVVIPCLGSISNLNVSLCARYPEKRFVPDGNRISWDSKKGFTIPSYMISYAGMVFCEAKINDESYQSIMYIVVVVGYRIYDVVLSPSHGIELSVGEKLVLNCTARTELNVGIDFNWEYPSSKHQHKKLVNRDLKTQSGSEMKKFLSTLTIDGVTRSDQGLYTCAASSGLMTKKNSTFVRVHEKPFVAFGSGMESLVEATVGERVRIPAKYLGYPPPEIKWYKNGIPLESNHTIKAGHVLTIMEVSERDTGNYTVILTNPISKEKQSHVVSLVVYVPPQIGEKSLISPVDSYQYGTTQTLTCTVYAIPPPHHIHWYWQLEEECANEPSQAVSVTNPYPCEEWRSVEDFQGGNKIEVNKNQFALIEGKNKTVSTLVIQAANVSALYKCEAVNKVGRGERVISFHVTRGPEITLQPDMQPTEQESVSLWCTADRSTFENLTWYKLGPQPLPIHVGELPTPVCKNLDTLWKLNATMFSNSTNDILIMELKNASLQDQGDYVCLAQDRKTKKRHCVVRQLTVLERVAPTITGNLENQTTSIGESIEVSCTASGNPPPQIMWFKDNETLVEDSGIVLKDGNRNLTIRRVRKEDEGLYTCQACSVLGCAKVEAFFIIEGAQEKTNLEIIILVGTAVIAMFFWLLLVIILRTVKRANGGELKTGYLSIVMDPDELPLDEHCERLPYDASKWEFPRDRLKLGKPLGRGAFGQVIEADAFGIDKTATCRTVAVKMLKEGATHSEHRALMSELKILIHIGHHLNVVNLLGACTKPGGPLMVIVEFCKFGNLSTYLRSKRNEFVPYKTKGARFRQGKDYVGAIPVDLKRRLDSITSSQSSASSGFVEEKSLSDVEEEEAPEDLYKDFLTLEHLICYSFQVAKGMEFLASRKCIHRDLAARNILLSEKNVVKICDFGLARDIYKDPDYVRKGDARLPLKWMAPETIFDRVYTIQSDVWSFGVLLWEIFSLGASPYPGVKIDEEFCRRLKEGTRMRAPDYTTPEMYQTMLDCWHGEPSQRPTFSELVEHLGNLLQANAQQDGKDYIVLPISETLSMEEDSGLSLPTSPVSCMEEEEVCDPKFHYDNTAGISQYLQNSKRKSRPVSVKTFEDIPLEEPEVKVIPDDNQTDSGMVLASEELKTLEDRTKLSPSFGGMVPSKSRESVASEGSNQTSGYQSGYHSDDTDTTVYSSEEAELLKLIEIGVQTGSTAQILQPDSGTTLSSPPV
Sequence of human mutant B-raf (HuBraf V600E) (P15056 whole entry V600E): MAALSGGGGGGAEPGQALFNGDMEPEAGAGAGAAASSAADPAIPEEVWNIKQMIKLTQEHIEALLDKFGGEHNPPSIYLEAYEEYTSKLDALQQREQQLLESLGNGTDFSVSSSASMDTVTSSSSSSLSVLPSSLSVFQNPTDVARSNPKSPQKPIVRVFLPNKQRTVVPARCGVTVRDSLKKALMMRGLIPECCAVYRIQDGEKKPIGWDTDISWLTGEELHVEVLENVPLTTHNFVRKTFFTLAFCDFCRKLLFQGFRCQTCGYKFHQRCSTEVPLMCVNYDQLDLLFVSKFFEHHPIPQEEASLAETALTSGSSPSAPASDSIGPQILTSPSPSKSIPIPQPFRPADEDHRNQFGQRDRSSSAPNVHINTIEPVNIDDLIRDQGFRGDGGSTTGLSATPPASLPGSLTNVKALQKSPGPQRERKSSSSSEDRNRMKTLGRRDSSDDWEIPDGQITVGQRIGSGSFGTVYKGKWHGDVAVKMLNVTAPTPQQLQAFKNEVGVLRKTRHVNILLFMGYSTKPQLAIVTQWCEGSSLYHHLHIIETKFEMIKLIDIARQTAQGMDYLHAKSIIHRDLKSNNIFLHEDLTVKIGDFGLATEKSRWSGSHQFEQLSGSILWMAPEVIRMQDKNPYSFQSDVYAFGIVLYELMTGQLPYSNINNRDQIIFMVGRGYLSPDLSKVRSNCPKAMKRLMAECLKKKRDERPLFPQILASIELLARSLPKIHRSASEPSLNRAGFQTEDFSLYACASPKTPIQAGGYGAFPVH
Sequence of ProfilerPro Kinase Selectivity Assay Kit kinases (Homo sapiens, UniProt Q13177) (Q13177 2-524 limits assumed): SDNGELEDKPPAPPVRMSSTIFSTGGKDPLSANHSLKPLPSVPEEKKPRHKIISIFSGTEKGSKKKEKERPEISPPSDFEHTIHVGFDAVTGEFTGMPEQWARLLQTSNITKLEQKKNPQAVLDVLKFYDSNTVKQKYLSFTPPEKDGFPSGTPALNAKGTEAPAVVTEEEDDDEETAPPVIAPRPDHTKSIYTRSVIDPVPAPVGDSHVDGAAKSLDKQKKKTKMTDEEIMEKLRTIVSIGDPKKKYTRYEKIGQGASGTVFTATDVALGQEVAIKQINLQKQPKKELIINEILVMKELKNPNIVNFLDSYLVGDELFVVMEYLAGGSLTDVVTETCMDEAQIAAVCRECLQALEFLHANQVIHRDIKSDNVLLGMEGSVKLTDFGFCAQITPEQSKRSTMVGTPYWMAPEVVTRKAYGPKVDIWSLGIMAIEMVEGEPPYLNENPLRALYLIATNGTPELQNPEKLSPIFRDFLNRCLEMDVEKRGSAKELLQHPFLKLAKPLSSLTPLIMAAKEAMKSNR
Sequence of PI3Kα (P42336 whole entry): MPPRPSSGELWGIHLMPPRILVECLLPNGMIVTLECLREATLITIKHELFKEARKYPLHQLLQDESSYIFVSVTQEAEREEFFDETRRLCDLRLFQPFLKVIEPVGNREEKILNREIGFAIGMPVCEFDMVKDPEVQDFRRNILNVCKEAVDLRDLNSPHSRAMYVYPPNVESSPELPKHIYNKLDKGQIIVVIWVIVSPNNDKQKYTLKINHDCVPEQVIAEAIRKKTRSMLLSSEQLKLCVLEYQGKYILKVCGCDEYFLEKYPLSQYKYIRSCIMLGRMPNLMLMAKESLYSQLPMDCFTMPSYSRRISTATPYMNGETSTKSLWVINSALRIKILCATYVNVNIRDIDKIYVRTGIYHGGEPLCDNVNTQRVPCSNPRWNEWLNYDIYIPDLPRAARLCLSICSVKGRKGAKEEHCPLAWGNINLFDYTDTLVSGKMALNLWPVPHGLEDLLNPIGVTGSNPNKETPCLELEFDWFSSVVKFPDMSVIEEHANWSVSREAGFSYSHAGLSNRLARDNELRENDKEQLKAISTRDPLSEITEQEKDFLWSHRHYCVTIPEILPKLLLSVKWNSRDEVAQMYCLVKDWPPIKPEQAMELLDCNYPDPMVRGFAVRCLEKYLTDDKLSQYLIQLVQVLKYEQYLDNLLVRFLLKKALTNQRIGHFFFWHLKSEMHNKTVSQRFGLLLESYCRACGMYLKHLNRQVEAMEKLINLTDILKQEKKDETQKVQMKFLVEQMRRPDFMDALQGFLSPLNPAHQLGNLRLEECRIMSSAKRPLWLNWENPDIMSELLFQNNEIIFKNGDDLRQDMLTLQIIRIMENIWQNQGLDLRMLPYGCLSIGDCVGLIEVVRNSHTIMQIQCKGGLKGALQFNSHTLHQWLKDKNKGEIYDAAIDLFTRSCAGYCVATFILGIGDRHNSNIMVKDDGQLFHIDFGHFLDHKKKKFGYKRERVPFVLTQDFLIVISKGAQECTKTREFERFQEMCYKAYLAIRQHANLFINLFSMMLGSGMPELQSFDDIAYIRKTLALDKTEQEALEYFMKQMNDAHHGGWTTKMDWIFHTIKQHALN
Sequence of PI3Kα (P27986 whole entry partner): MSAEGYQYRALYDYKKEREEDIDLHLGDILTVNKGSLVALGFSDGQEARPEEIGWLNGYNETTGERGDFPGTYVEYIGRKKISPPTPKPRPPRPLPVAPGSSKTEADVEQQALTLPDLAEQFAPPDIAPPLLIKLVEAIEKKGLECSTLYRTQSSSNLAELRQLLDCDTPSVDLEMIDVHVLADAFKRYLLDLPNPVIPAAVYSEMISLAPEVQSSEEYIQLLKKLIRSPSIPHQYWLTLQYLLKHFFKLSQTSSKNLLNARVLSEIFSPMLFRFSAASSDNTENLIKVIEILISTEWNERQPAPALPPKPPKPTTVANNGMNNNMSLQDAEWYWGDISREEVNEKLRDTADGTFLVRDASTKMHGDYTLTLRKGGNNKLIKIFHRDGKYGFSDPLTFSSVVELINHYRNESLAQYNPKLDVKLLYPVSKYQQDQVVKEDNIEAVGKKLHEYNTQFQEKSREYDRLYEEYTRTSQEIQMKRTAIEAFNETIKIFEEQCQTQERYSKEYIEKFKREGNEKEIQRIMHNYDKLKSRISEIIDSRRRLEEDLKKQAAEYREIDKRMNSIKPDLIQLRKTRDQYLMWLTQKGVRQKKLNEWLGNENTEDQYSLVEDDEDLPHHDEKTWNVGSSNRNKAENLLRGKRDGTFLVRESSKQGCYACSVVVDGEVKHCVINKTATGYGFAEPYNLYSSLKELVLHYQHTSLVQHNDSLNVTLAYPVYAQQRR

| Compound | POC (Percent of control) SGK1 [1] [POC] | POC (Percent of control) ROCK2 [2] [POC] | POC (Percent of control) CHK2 [3] [POC] | POC (Percent of control) FYN [4] [POC] | POC (Percent of control) AKT2 [5] [POC] | POC (Percent of control) KDR [6] [POC] | POC (Percent of control) SYK [7] [POC] | POC (Percent of control) MAPKAPK2 [8] [POC] | POC (Percent of control) PKC zeta [9] [POC] | POC (Percent of control) PAK2 [10] [POC] | POC (Percent of control) PKD2 [11] [POC] | POC (Percent of control) PIM2 [12] [POC] | POC (Percent of control) AMPK [13] [POC] | POC (Percent of control) CAMK2 [13] [POC] | POC (Percent of control) PKC beta2 [13] [POC] | POC (Percent of control) TAK1 [13] [POC] | Ki [14] [µM] | Mutant B-raf HTRF Assay POC Mean n = 2 [15] | IC50 [16] [µM] |
| --- | --- | --- | --- | --- | --- | --- | --- | --- | --- | --- | --- | --- | --- | --- | --- | --- | --- | --- | --- |
| c1cnc(Nc2cccc3[nH]ncc23)c(-c2ncnc3[nH]cnc23)c1 [Example 18, N-(3-(9H-Purin-6-yl)Pyridin-2-yl)-1H-Indazol-4-Amine] | 97 | 98 | 94 | 86 | 93 | 89 | 63 | 93 | 102 | 96 | 97 | 101 | 83 | 90 | 91 | 97 | 22.6 | 3% of Control (POC) |  |
| COc1ccc(Nc2ncccc2-c2ncnc3[nH]cnc23)cn1 [Example 20, N-(6-Methoxypyridin-3-yl)-3-(9H-Purin-6-yl)Pyridin-2-Amine] | 95 | 101 | 103 | 101 | 92 | 93 | 107 | 100 | 99 | 103 | 100 | 105 | 93 | 111 | 104 | 99 |  | 72% of Control (POC) |  |
| Cc1nc(N)nc(-c2cccnc2Nc2cccc3[nH]ccc23)n1 [Example 22, N-(3-(4-Amino-6-Methyl-1,3,5-Triazin-2-yl)Pyridin-2-yl)-1H-Indol-4-Amine] | 99 | 94 | 102 | 103 | 97 | 106 | 96 | 98 | 98 | 99 | 99 | 97 | 92 | 118 | 96 | 99 |  | 118% of Control (POC) |  |
| Cc1nc(N)nc(-c2cccnc2Nc2cccc(O)c2)n1 [Example 23, 3-(3-(4-Amino-6-Methyl-1,3,5-Triazin-2-yl)Pyridin-2-Ylamino)Phenol] | 102 | 101 | 101 | 96 | 112 | 105 | 110 | 99 | 102 | 96 | 104 | 99 | 98 | 108 | 92 | 102 |  | 100% of Control (POC) |  |
| Cc1nc(-c2cccnc2Nc2cccc3[nH]ncc23)c2nc[nH]c2n1 [Example 57, N-(3-(2-methyl-9H-purin-6-yl)pyridin-2-yl)-1H-indazol-4-amine] | 92 | 95 | 98 | 103 | 98 | 90 | 100 | 99 | 100 | 95 | 97 | 94 | 92 | 109 | 97 | 97 |  | 87% of Control (POC) |  |
| COc1ccc(Nc2ncccc2-c2nc(C)nc3[nH]cnc23)cn1 [Example 58, N-(6-methoxypyridin-3-yl)-3-(2-methyl-9H-purin-6-yl)pyridin-2-amine] | 97 | 100 | 99 | 103 | 96 | 93 | 86 | 96 | 142 | 102 | 92 | 94 | 99 | 103 | 161 | 107 |  | 97% of Control (POC) |  |
| COc1ccc(Nc2ncc(Cc3ccc(S(C)(=O)=O)cc3)cc2-c2nc(C)nc3[nH]cnc23)cn1 [Example 103, N-(6-methoxypyridin-3-yl)-3-(2-methyl-9H-purin-6-yl)-5-(4-(methylsulfonyl)benzyl)pyridin-2-amine] | 96 | 106 | 94 | 97 | 89 | 91 | 99 | 100 | 98 | 98 | 87 | 96 | 102 | 95 | 100 | 115 | 0.002 |  | 0.028 |
